Key:
[1] = Active ingredient assay and recovery on storage (Table 2); format: physicochemical
[2] = Active ingredient assay on storage, SCB239-12 (Table 3); format: physicochemical

CCCCC(CC)COC(=O)COc1ccc(Cl)cc1C (stereo not shown) [MCPA, 2-ethylhexyl 2-(4-chloro-2-methylphenoxy) acetate]
Assay (% w/w) ([1]; 1 month storage, 0° C.): 34.61 % w/w
Assay (% w/w) ([1]; 1 month storage, 40° C.): 34.69 % w/w
Assay (% w/w) ([1]; 1 month storage, T/C): 34.68 % w/w
Assay (% w/w) ([1]; 1 month storage, −10° C.): 34.65 % w/w
Assay (% w/w) ([1]; 2 month storage, 0° C.): 34.82 % w/w
Assay (% w/w) ([1]; 2 month storage, 40° C.): 34.90 % w/w
Assay (% w/w) ([1]; 2 month storage, T/C): 34.94 % w/w
Assay (% w/w) ([1]; 2 month storage, −10° C.): 34.92 % w/w
Assay (% w/w) ([1]; 2 wks, 54° C.): 35.05 % w/w
Assay (% w/w) ([1]; 3 month storage, 0° C.): 35.25 % w/w
Assay (% w/w) ([1]; 3 month storage, 25° C.): 35.23 % w/w
Assay (% w/w) ([1]; 3 month storage, 40° C.): 35.28 % w/w
Assay (% w/w) ([1]; 3 month storage, T/C): 35.30 % w/w
Assay (% w/w) ([1]; 3 month storage, −10° C.): 35.36 % w/w
Assay (% w/w) ([1]; 6 month storage, 25° C.): 34.14 % w/w
Assay (% w/w) ([1]; 9 month storage, 25° C.): 34.73 % w/w
Assay (% w/w) ([1]; 12 month storage, 25° C.): 34.84 % w/w
Assay (% w/w) ([1]; F/T Sample): 35.06 % w/w
Assay (% w/w) ([1]; initial): 35.01 % w/w
Assay (% w/w) ([2]; 1 month storage, 0° C.): 33.65 % w/w
Recovery of active ingredient (% of initial assay) ([2]; 1 month storage, 0° C.): 99.88 % w/w
Assay (% w/w) ([2]; 1 month storage, 40° C.): 33.61 % w/w
Recovery of active ingredient (% of initial assay) ([2]; 1 month storage, 40° C.): 99.77 % w/w
Assay (% w/w) ([2]; 1 month storage, T/C): 33.64 % w/w
Recovery of active ingredient (% of initial assay) ([2]; 1 month storage, T/C): 99.85 % w/w
Assay (% w/w) ([2]; 2 month storage, 0° C.): 34.07 % w/w
Recovery of active ingredient (% of initial assay) ([2]; 2 month storage, 0° C.): 101.15 % w/w
Assay (% w/w) ([2]; 2 month storage, 40° C.): 33.84 % w/w
Recovery of active ingredient (% of initial assay) ([2]; 2 month storage, 40° C.): 100.47 % w/w
Assay (% w/w) ([2]; 2 month storage, T/C): 33.97 % w/w
Recovery of active ingredient (% of initial assay) ([2]; 2 month storage, T/C): 100.84 % w/w
Assay (% w/w) ([2]; 2 wks, 54° C.): 34.24 % w/w
Recovery of active ingredient (% of initial assay) ([2]; 2 wks, 54° C.): 101.65 % w/w
Assay (% w/w) ([2]; 3 month storage, 0° C.): 33.76 % w/w
Recovery of active ingredient (% of initial assay) ([2]; 3 month storage, 0° C.): 100.21 % w/w
Assay (% w/w) ([2]; 3 month storage, 25° C.): 33.64 % w/w
Recovery of active ingredient (% of initial assay) ([2]; 3 month storage, 25° C.): 99.86 % w/w
Assay (% w/w) ([2]; 3 month storage, 40° C.): 33.61 % w/w
Recovery of active ingredient (% of initial assay) ([2]; 3 month storage, 40° C.): 99.76 % w/w
Assay (% w/w) ([2]; 3 month storage, −10° C.): 33.41 % w/w
Recovery of active ingredient (% of initial assay) ([2]; 3 month storage, −10° C.): 99.20 % w/w
Assay (% w/w) ([2]; F/T sample): 34.30 % w/w
Recovery of active ingredient (% of initial assay) ([2]; F/T sample): 101.84 % w/w
Assay (% w/w) ([2]; Initial): 33.69 % w/w

CCCCCC(C)OC(=O)COc1ccc(Cl)c2cccnc12 (stereo not shown) [cloquintocet, Cloquintocet Mexyl]
Assay (% w/w) ([1]; 1 month storage, 0° C.): 0.41 % w/w
Assay (% w/w) ([1]; 1 month storage, 40° C.): 0.41 % w/w
Assay (% w/w) ([1]; 1 month storage, T/C): 0.41 % w/w
Assay (% w/w) ([1]; 1 month storage, −10° C.): 0.41 % w/w
Assay (% w/w) ([1]; 2 month storage, 0° C.): 0.41 % w/w
Assay (% w/w) ([1]; 2 month storage, 40° C.): 0.40 % w/w
Assay (% w/w) ([1]; 2 month storage, T/C): 0.40 % w/w
Assay (% w/w) ([1]; 2 month storage, −10° C.): 0.41 % w/w
Assay (% w/w) ([1]; 2 wks, 54° C.): 0.39 % w/w
Assay (% w/w) ([1]; 3 month storage, 0° C.): 0.41 % w/w
Assay (% w/w) ([1]; 3 month storage, 25° C.): 0.41 % w/w
Assay (% w/w) ([1]; 3 month storage, 40° C.): 0.40 % w/w
Assay (% w/w) ([1]; 3 month storage, T/C): 0.41 % w/w
Assay (% w/w) ([1]; 3 month storage, −10° C.): 0.42 % w/w
Assay (% w/w) ([1]; 6 month storage, 25° C.): 0.39 % w/w
Assay (% w/w) ([1]; 9 month storage, 25° C.): 0.39 % w/w
Assay (% w/w) ([1]; 12 month storage, 25° C.): 0.39 % w/w
Assay (% w/w) ([1]; F/T Sample): 0.41 % w/w
Assay (% w/w) ([1]; initial): 0.41 % w/w
Assay (% w/w) ([2]; 1 month storage, 0° C.): 0.35 % w/w
Recovery of active ingredient (% of initial assay) ([2]; 1 month storage, 0° C.): 100.15 % w/w
Assay (% w/w) ([2]; 1 month storage, 40° C.): 0.35 % w/w
Recovery of active ingredient (% of initial assay) ([2]; 1 month storage, 40° C.): 99.58 % w/w
Assay (% w/w) ([2]; 1 month storage, T/C): 0.35 % w/w
Recovery of active ingredient (% of initial assay) ([2]; 1 month storage, T/C): 99.83 % w/w
Assay (% w/w) ([2]; 2 month storage, 0° C.): 0.36 % w/w
Recovery of active ingredient (% of initial assay) ([2]; 2 month storage, 0° C.): 100.12 % w/w
Assay (% w/w) ([2]; 2 month storage, 40° C.): 0.35 % w/w
Recovery of active ingredient (% of initial assay) ([2]; 2 month storage, 40° C.): 100.02 % w/w
Assay (% w/w) ([2]; 2 month storage, T/C): 0.36 % w/w
Recovery of active ingredient (% of initial assay) ([2]; 2 month storage, T/C): 101.08 % w/w
Assay (% w/w) ([2]; 2 wks, 54° C.): 0.35 % w/w
Recovery of active ingredient (% of initial assay) ([2]; 2 wks, 54° C.): 100.70 % w/w
Assay (% w/w) ([2]; 3 month storage, 0° C.): 0.35 % w/w
Recovery of active ingredient (% of initial assay) ([2]; 3 month storage, 0° C.): 100.75 % w/w
Assay (% w/w) ([2]; 3 month storage, 25° C.): 0.35 % w/w
Recovery of active ingredient (% of initial assay) ([2]; 3 month storage, 25° C.): 100.17 % w/w
Assay (% w/w) ([2]; 3 month storage, 40° C.): 0.35 % w/w
Recovery of active ingredient (% of initial assay) ([2]; 3 month storage, 40° C.): 99.39 % w/w
Assay (% w/w) ([2]; 3 month storage, −10° C.): 0.35 % w/w
Recovery of active ingredient (% of initial assay) ([2]; 3 month storage, −10° C.): 99.59 % w/w
Assay (% w/w) ([2]; F/T sample): 0.36 % w/w
Recovery of active ingredient (% of initial assay) ([2]; F/T sample): 101.49 % w/w
Assay (% w/w) ([2]; Initial): 0.35 % w/w

Source: US11877574B2, “Herbicidal oil dispersion and method” (Arysta LifeScience Inc., priority 2018, dated 2024)
